The values that follow come from patent US10022376B2 (Pfizer Inc., priority 2014, dated 2018).

For one experiment, the target named is JAK1 (Homo sapiens (Human), UniProt P23458). The experiment is described as follows: JAK Caliper Enzyme Assay at 1 mM ATP (JAK1). In kind it is biochemical. To be noted: Caliper assay at 1 mM ATP.
The target in another experiment is JAK2 (Homo sapiens (Human), UniProt O60674). Briefly: JAK Caliper Enzyme Assay at 1 mM ATP (JAK2). In kind it is biochemical. To be noted: Caliper assay at 1 mM ATP.
A further experiment has as its target JAK3 (Homo sapiens (Human), UniProt P52333). The experiment is described as follows: JAK Caliper Enzyme Assay at 1 mM ATP (JAK3). It counts as biochemical. The conditions noted are these: Caliper assay at 1 mM ATP.
For another experiment, the target named is TYK2 (Homo sapiens (Human), UniProt P29597). Briefly: JAK Caliper Enzyme Assay at 1 mM ATP (TYK2). It counts as biochemical. To be noted: Caliper assay at 1 mM ATP.
Experiment [1] has as its system rhIFNγ stimulated STAT-3 phosphorylation in the A549 human epithelial cell line. The experiment is described as follows: A549 Cell Assay: Inhibition of pSTAT3. It counts as cell-based. The conditions noted are these: Homo sapiens; A549 cells. The method, boiled down:
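A549 cells cultured 18 h were preincubated 1 h at 37° C with compound (0.3 nM to 10 μM, 0.1% DMSO) in DMEM with 0.2% BSA, then stimulated with 20 ng/mL rhIFNγ for 30 min. pSTAT3 Tyr705 in the lysates was measured by MSD immunoassay and expressed as percent inhibition.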

JAK3, sequence (P52333 whole entry): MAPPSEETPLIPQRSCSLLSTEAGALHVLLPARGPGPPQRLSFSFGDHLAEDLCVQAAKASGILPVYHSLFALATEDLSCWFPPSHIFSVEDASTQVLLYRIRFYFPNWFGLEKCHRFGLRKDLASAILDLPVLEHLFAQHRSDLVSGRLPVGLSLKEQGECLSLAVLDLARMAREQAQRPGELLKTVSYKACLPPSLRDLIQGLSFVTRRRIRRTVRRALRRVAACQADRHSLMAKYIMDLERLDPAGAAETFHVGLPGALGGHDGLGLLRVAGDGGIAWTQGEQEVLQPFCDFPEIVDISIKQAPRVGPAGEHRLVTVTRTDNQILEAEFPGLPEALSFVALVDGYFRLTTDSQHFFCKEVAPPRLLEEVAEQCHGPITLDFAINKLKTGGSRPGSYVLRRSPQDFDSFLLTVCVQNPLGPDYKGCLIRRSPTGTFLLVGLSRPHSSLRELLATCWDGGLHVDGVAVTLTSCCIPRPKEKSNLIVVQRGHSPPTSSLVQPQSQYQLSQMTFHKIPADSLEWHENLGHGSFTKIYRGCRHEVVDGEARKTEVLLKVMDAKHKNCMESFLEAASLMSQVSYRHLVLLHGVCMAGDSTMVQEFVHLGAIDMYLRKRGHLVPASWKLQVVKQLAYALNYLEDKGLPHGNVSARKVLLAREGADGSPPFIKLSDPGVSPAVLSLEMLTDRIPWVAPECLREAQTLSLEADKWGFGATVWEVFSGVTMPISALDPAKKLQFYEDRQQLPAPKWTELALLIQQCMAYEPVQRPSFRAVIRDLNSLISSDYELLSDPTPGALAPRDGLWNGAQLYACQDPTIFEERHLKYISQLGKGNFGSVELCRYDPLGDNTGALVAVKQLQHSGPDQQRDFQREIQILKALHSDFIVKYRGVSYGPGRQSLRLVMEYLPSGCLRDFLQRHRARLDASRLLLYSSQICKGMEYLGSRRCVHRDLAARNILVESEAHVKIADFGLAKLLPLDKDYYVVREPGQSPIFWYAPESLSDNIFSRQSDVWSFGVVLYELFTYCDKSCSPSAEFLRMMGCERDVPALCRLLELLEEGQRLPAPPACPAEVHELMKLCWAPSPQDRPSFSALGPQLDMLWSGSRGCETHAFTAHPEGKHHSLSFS
JAK2, sequence (O60674 whole entry): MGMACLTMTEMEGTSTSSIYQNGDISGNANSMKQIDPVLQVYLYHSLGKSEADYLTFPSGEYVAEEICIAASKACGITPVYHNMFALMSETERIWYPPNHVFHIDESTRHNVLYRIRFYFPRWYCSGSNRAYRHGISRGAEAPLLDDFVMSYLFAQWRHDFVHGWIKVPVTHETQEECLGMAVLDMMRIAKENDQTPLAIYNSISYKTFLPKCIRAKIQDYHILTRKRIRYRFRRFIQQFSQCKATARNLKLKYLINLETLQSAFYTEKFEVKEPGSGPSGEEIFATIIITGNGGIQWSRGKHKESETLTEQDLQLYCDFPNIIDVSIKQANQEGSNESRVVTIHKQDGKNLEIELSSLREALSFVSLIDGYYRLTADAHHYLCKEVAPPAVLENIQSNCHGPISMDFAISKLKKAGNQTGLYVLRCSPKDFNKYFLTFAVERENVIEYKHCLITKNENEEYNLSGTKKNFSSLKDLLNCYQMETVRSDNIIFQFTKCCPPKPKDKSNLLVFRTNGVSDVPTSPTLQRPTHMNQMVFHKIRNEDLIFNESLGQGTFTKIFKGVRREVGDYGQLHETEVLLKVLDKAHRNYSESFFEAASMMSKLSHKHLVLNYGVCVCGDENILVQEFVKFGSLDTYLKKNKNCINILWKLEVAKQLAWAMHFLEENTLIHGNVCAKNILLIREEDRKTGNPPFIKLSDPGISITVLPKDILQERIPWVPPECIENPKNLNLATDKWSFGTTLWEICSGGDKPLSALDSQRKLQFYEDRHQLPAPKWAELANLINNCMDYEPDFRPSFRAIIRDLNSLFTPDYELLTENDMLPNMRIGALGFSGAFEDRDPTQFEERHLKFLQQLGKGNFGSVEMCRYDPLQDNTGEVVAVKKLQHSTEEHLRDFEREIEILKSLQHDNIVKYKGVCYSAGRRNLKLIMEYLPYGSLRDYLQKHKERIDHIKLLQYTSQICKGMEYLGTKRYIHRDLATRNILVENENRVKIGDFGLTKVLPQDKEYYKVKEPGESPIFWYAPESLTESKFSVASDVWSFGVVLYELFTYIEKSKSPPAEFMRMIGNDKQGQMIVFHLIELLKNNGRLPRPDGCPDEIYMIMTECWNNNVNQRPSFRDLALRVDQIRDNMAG
TYK2, sequence (P29597 whole entry): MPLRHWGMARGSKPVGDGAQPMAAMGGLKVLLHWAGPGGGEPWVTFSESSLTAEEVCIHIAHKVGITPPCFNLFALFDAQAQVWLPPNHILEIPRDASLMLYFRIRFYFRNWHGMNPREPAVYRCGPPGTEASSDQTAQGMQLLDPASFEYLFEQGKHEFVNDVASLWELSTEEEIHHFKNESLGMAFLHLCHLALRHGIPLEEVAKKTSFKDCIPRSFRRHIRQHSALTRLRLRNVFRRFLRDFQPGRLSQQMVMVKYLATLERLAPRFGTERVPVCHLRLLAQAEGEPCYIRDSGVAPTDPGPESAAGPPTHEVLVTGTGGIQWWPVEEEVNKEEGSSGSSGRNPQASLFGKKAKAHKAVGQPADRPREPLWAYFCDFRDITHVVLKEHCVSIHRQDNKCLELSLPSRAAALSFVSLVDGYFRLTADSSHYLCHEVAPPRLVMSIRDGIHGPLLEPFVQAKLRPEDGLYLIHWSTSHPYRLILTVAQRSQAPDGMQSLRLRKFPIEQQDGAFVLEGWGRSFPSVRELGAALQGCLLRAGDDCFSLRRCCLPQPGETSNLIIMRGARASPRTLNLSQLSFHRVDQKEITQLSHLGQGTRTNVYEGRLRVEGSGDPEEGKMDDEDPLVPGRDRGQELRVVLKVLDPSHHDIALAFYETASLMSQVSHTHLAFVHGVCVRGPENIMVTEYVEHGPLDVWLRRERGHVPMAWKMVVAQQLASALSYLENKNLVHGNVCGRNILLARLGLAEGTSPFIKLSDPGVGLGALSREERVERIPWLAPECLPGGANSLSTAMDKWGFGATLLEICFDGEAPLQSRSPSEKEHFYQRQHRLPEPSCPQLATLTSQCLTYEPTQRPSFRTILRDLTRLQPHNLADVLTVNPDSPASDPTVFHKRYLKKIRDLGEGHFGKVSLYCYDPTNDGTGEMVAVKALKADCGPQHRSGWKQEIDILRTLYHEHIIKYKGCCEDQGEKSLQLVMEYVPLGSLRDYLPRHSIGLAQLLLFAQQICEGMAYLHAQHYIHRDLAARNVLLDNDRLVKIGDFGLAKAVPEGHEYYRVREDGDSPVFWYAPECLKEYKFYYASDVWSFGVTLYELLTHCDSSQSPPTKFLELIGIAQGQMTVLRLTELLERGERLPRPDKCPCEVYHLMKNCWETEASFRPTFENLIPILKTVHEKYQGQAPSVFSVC
JAK1, sequence (P23458 whole entry): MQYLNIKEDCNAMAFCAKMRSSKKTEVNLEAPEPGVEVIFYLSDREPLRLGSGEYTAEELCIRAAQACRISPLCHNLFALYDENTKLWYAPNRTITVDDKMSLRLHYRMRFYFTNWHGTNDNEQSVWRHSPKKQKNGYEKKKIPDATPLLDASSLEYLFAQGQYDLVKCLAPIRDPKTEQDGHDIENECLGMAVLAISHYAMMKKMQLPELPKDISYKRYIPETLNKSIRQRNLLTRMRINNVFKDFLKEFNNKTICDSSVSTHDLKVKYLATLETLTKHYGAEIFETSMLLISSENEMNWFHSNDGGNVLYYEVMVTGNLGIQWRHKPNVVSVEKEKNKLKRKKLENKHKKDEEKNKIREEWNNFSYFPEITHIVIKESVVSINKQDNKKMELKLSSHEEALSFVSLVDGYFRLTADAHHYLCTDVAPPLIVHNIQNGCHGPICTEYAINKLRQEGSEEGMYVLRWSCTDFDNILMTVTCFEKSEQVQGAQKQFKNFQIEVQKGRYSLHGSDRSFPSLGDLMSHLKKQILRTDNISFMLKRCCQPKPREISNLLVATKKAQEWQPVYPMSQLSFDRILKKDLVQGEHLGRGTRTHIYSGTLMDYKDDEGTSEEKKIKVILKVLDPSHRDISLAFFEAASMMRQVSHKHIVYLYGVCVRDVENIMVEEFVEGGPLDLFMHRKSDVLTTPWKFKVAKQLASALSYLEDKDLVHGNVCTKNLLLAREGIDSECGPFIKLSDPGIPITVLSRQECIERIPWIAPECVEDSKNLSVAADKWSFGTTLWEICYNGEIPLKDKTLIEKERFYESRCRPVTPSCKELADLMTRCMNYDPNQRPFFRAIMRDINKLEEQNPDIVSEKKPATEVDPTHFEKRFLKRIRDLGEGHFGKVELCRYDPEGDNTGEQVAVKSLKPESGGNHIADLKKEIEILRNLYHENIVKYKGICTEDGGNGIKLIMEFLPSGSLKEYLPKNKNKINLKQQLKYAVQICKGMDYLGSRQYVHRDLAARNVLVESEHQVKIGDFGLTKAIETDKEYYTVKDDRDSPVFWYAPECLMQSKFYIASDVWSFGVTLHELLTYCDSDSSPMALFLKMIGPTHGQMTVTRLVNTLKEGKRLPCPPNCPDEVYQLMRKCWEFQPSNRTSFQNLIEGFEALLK

Turning to `CCc1cc(O)c(F)cc1-c1cc2[nH]nc(C(=O)NC)c2c(NCCc2ccc(NS(=O)(=O)c3ccccc3)cc2)n1` [Example 23, 6-(2-ethyl-5-fluoro-4-hydroxyphenyl)-N-methyl-4-[(2-{4-[(phenylsulfonyl)amino]phenyl}ethyl)amino]-1H-pyrazolo[4,3-c]pyridine-3-carboxamide], the IC50 (commonly the point on the concentration scale where inhibition reaches its midpoint) on JAK1 was 5.8 nM; at JAK2 it was 25.7 nM; on JAK3 it was 111 nM; against TYK2 it was 83.2 nM; in experiment [1], 51.4 nM.
For `CCc1cc(O)c(F)cc1-c1cc2[nH]nc(C(=O)NC)c2c(NCc2ccccc2N(CC)S(C)(=O)=O)n1` [Example 9, 6-(2-ethyl-5-fluoro-4-hydroxyphenyl)-4-({2-[ethyl(methylsulfonyl)amino]benzyl}amino)-N-methyl-1H-pyrazolo[4,3-c]pyridine-3-carboxamide], the IC50 was found to be 1.7 nM on JAK1; 10.8 nM on JAK2; 60 nM against JAK3; 7.2 nM at TYK2; 14.9 nM in experiment [1].
The matching figures for `Cc1cnc(N(C)S(C)(=O)=O)c(CNc2nc(-c3cc(F)c(O)cc3CC(F)(F)F)cc3[nH]nc(C(N)=O)c23)c1` [Example 86, 6-(5-fluoro-4-hydroxy-2-(2,2,2-trifluoroethyl)phenyl)-4-(((5-methyl-2-(N-methylmethylsulfonamido)pyridin-3-yl)methyl)amino)-1H-pyrazolo[4,3-c]pyridine-3-carboxamide]: 38.4 nM, 110 nM, 81.7 nM, 4820 nM and 425 nM.
For `CCc1cc(O)c(F)cc1-c1cc2[nH]nc(C(=O)NC)c2c(NCC2CCCC2)n1` [Example 10, 4-[(cyclopentylmethyl)amino]-6-(2-ethyl-5-fluoro-4-hydroxyphenyl)-N-methyl-1H-pyrazolo[4,3-c]pyridine-3-carboxamide], the IC50 against JAK1 is 4.7 nM; on JAK2, 19 nM; against JAK3, 93.1 nM; on TYK2 it was 17.9 nM; in experiment [1], 26 nM.
The matching figures for `CN(c1ccccc1CNc1nc(-c2cc(F)c(O)cc2CC(F)(F)F)cc2[nH]nc(C(N)=O)c12)S(=O)(=O)c1ccccc1` [Example 26, 6-[5-fluoro-4-hydroxy-2-(2,2,2-trifluoroethyl)phenyl]-4-({2-[methyl(phenylsulfonyl)amino]benzyl}amino)-1H-pyrazolo[4,3-c]pyridine-3-carboxamide]: 19.9 nM, 91.1 nM, 293 nM, 218 nM and 124 nM.
For `CNC(=O)c1n[nH]c2cc(-c3cc(F)c(O)cc3CC(F)(F)F)nc(NCc3cc(O)ccc3N(C)S(=O)(=O)c3cccnc3)c12` [Example 54, 6-[5-fluoro-4-hydroxy-2-(2,2,2-trifluoroethyl)phenyl]-4-({5-hydroxy-2-[methyl(pyridin-3-ylsulfonyl)amino]benzyl}amino)-N-methyl-1H-pyrazolo[4,3-c]pyridine-3-carboxamide], in that order: 6.1 nM, 32.9 nM, 123 nM, 25.9 nM and 135 nM.
On to `CNC(=O)c1n[nH]c2cc(-c3cc(F)c(O)cc3CC(F)(F)F)nc(NCc3ccccc3N(CCO)S(C)(=O)=O)c12` [Example 24, 6-[5-fluoro-4-hydroxy-2-(2,2,2-trifluoroethyl)phenyl]-4-({2-[(2-hydroxyethyl)(methylsulfonyl)amino]benzyl}amino)-N-methyl-1H-pyrazolo[4,3-c]pyridine-3-carboxamide], for which the IC50 was determined as 2.9 nM on JAK1; 16.5 nM at JAK2; 69.6 nM at JAK3; 29.9 nM against TYK2; 226 nM in experiment [1].
